Measured values published in ChEMBL document CHEMBL5131426, “Novel hydrazone derivatives of N-amino-11-azaartemisinin with high order of antimalarial activity against multidrug-resistant Plasmodium yoelii nigeriensis in Swiss mice via intramuscular route” (Bioorg Med Chem Lett, 2022).

Legend:
[1] = system: Plasmodium yoelii nigeriensis; experiment: Antimalarial activity against multidrug-resistant Plasmodium yoelii nigeriensis infected in Swiss mouse assessed as inhibition of parasitemia at 24 mg/kg, po for 4 days measured on day 4 relative to control; assay type: functional; settings: 96 h, time 4 day
[2] = system: Plasmodium yoelii nigeriensis; experiment: Antimalarial activity against multidrug-resistant Plasmodium yoelii nigeriensis infected in Swiss mouse assessed as inhibition of parasitemia at 12 mg/kg, IM for 4 days measured on day 4 relative to control; assay type: functional; settings: 96 h, time 4 day
[3] = Toxicity in Swiss mouse infected with multidrug-resistant Plasmodium yoelii nigeriensis assessed as animal dead at 12 mg/kg, IM for 4 days measured on day 28; assay type: organism-based; settings: in vivo, 96 h, time 4 day
[4] = Toxicity in Swiss mouse infected with multidrug-resistant Plasmodium yoelii nigeriensis assessed as animal survival at 12 mg/kg, IM for 4 days measured on day 28; assay type: organism-based; settings: in vivo, time 4 day; for survival at 96 h: Swiss, read-out: Activity
[5] = Toxicity in Swiss mouse infected with multidrug-resistant Plasmodium yoelii nigeriensis assessed as animal survival at 24 mg/kg, IM for 4 days measured on day 28; assay type: organism-based; settings: in vivo, time 4 day, read-out: Activity
[6] = Toxicity in Swiss mouse infected with multidrug-resistant Plasmodium yoelii nigeriensis assessed as animal survival at 24 mg/kg, po for 4 days measured on day 28; assay type: organism-based; settings: in vivo, time 4 day; for Activity: po, 24 mg/kg, 96 h
[7] = system: Plasmodium yoelii nigeriensis; experiment: Antimalarial activity against multidrug-resistant Plasmodium yoelii nigeriensis infected in Swiss mouse assessed as inhibition of parasitemia at 12 mg/kg, po for 4 days measured on day 4 relative to control; assay type: functional; settings: 96 h, time 4 day
[8] = Toxicity in Swiss mouse infected with multidrug-resistant Plasmodium yoelii nigeriensis assessed as animal dead at 12 mg/kg, po for 4 days measured on day 28; assay type: organism-based; settings: in vivo, 96 h, time 4 day
[9] = system: Plasmodium yoelii nigeriensis; experiment: Antimalarial activity against multidrug-resistant Plasmodium yoelii nigeriensis infected in Swiss mouse assessed as inhibition of parasitemia at 6 mg/kg, po for 4 days measured on day 4 relative to control; assay type: functional; settings: 96 h, time 4 day
[10] = system: Plasmodium yoelii nigeriensis; experiment: Antimalarial activity against multidrug-resistant Plasmodium yoelii nigeriensis infected in Swiss mouse assessed as inhibition of parasitemia at 3 mg/kg, IM for 4 days measured on day 4 relative to control; assay type: functional; settings: 96 h, time 4 day
[11] = Toxicity in Swiss mouse infected with multidrug-resistant Plasmodium yoelii nigeriensis assessed as animal survival at 6 mg/kg, IM for 4 days measured on day 28; assay type: organism-based; settings: in vivo, time 4 day
[12] = Toxicity in Swiss mouse infected with multidrug-resistant Plasmodium yoelii nigeriensis assessed as animal survival at 12 mg/kg, po for 4 days measured on day 28; assay type: organism-based; settings: in vivo, 96 h, time 4 day
[13] = Toxicity in Swiss mouse infected with multidrug-resistant Plasmodium yoelii nigeriensis assessed as animal dead at 6 mg/kg, po for 4 days measured on day 28; assay type: organism-based; settings: in vivo, 96 h, time 4 day
[14] = Toxicity in Swiss mouse infected with multidrug-resistant Plasmodium yoelii nigeriensis assessed as animal dead at 3 mg/kg, IM for 4 days measured on day 28; assay type: organism-based; settings: in vivo, 96 h, time 4 day
[15] = system: Plasmodium yoelii nigeriensis; experiment: Antimalarial activity against multidrug-resistant Plasmodium yoelii nigeriensis infected in Swiss mouse assessed as inhibition of parasitemia at 6 mg/kg, IM for 4 days measured on day 4 relative to control; assay type: functional; settings: 96 h, time 4 day
[16] = Toxicity in Swiss mouse infected with multidrug-resistant Plasmodium yoelii nigeriensis assessed as animal dead at 24 mg/kg, po for 4 days measured on day 28; assay type: organism-based; settings: in vivo, 96 h, time 4 day
[17] = system: Plasmodium yoelii nigeriensis; experiment: Antimalarial activity against multidrug-resistant Plasmodium yoelii nigeriensis infected in Swiss mouse assessed as inhibition of parasitemia at 48 mg/kg, po for 4 days measured on day 4 relative to control; assay type: functional; settings: 96 h, time 4 day
[18] = system: Plasmodium yoelii nigeriensis; experiment: Antimalarial activity against multidrug-resistant Plasmodium yoelii nigeriensis infected in Swiss mouse assessed as inhibition of parasitemia at 48 mg/kg, IM for 4 days measured on day 4 relative to control; assay type: functional; settings: 96 h, time 4 day
[19] = system: Plasmodium yoelii nigeriensis; experiment: Antimalarial activity against multidrug-resistant Plasmodium yoelii nigeriensis infected in Swiss mouse assessed as inhibition of parasitemia at 24 mg/kg, IM for 4 days measured on day 4 relative to control; assay type: functional; settings: 96 h, time 4 day
[20] = Toxicity in Swiss mouse infected with multidrug-resistant Plasmodium yoelii nigeriensis assessed as animal dead at 48 mg/kg, po for 4 days measured on day 28; assay type: organism-based; settings: in vivo, 96 h, time 4 day
[21] = Toxicity in Swiss mouse infected with multidrug-resistant Plasmodium yoelii nigeriensis assessed as animal survival at 48 mg/kg, IM for 4 days measured on day 28; assay type: organism-based; settings: in vivo, 96 h, time 4 day

SMILES	inhibition in vivo at 24 mg/kg [1]	inhibition in vivo at 12 mg/kg [2]	survival at 96 h [4]	also measured
C[C@@H]1CC[C@H]2[C@@H](C)C(=O)N(N)[C@@H]3O[C@@]4(C)CC[C@@H]1[C@@]23OO4	100%	100%	–	Activity [3]: Toxic
C[C@@H]1CC[C@H]2[C@@H](C)C(=O)N(/N=C/c3ccccc3O)[C@@H]3O[C@@]4(C)CC[C@@H]1[C@@]23OO4	100%	100%	40%	–
C[C@@H]1CC[C@H]2[C@@H](C)C(=O)N(N=C3C4CC5CC(C4)CC3C5)[C@@H]3O[C@@]4(C)CC[C@@H]1[C@@]23OO4	100%	100%	20%	–
C[C@@H]1CC[C@H]2[C@@H](C)C(=O)N(/N=C/c3ccc[nH]3)[C@@H]3O[C@@]4(C)CC[C@@H]1[C@@]23OO4	100%	100%	–	survival at 96 h [5]: 40%
CC(C)=NN1C(=O)[C@H](C)[C@@H]2CC[C@@H](C)[C@@H]3CC[C@@]4(C)OO[C@]32[C@H]1O4	100%	100%	–	–
C[C@@H]1CC[C@H]2[C@@H](C)C(=O)N(/N=C/c3ccc(Br)cc3)[C@@H]3O[C@@]4(C)CC[C@@H]1[C@@]23OO4	100%	100%	60%	–
C[C@@H]1CC[C@H]2[C@@H](C)C(=O)N(N=C3CCCCC3)[C@@H]3O[C@@]4(C)CC[C@@H]1[C@@]23OO4	100%	100%	40%	–
C[C@@H]1CC[C@H]2[C@@H](C)C(=O)N(/N=C/c3ccco3)[C@@H]3O[C@@]4(C)CC[C@@H]1[C@@]23OO4	100%	100%	80%	survival at 96 h ([6]; Swiss, read-out: Activity): 80%
COc1ccc(/C=N/N2C(=O)[C@H](C)[C@@H]3CC[C@@H](C)[C@@H]4CC[C@@]5(C)OO[C@]43[C@H]2O5)cc1	100%	100%	60%	inhibition in vivo at 12 mg/kg [7]: 100%; Activity [6]: Non-Toxic; Activity [8]: Toxic
C[C@@H]1CC[C@H]2[C@@H](C)C(=O)N(/N=C/c3cccs3)[C@@H]3O[C@@]4(C)CC[C@@H]1[C@@]23OO4	100%	100%	–	inhibition in vivo at 12 mg/kg [7]: 100%
C[C@@H]1CC[C@H]2[C@@H](C)C(=O)N(N=C3c4ccccc4-c4ccccc43)[C@@H]3O[C@@]4(C)CC[C@@H]1[C@@]23OO4	100%	100%	–	inhibition in vivo at 12 mg/kg [7]: 100%; inhibition in vivo at 6 mg/kg [9]: 98%; inhibition in vivo at 3 mg/kg [10]: 38%; Activity ([11]; im, 6 mg/kg, 96 h): Non-Toxic; Activity [6]: Non-Toxic; Activity ([4]; im, 12 mg/kg, 96 h): Non-Toxic; Activity [12]: Non-Toxic; Activity [13]: Toxic; Activity [14]: Toxic
C[C@@H]1CC[C@H]2[C@@H](C)C(=O)N(/N=C/c3cccc([N+](=O)[O-])c3)[C@@H]3O[C@@]4(C)CC[C@@H]1[C@@]23OO4	100%	100%	–	Activity [3]: Toxic
C[C@@H]1CC[C@H]2[C@@H](C)C(=O)N(N=C3CCCC3)[C@@H]3O[C@@]4(C)CC[C@@H]1[C@@]23OO4	100%	100%	–	inhibition in vivo at 6 mg/kg [15]: 100%; survival at 96 h ([11]; Swiss, read-out: Activity): 80%; Activity [16]: Toxic; Activity [6]: Non-Toxic
C[C@@H]1CC[C@H]2[C@@H](C)C(=O)O[C@@H]3O[C@@]4(C)CC[C@@H]1[C@]32OO4 [ARTEMISININ]	–	–	–	inhibition in vivo at 48 mg/kg [17]: 100%; inhibition in vivo at 48 mg/kg [18]: 100%; inhibition in vivo at 24 mg/kg [19]: 100%; Activity [20]: Toxic; Activity [21]: Non-Toxic
